Source: the kinase profiling compilation of Christmann-Franck et al. (2016)
Several values for one entry are separate records, joined by “and”; a condition that tells them apart may be missing. Identical values can stand only once. Each block holds one compound with its values, some of them ahead of it.

Tests used:
Test in all cases: radiometric filter-binding kinase assay, Kinase HotSpot
Settings in all cases: compound 0.5 µM; ATP 10 µM
ABL1 (human) = ABL1 (human) (UniProt P00519)
AKT1 (human) = AKT1 (human) (UniProt P31749)
ALK (human) = ALK (human) (UniProt Q9UM73)
AURKA (human) = AURKA (human) (UniProt O14965)
BRSK2 (human) = BRSK2 (human) (UniProt Q8IWQ3)
CAMK1G (human) = CAMK1G (human) (UniProt Q96NX5)
CAMKK2 (human) = CAMKK2 (human) (UniProt Q96RR4)
CDC42BPA (human) = CDC42BPA (human) (UniProt Q5VT25)
CDK3 CCNE1 (human) = CDK3 CCNE1 (human) (UniProt Q00526+P24864)
CDK5 CDK5R1 p25 (human) = CDK5 CDK5R1 p25 (human) (UniProt Q00535+Q15078)
DMPK (human) = DMPK (human) (UniProt Q09013)
DYRK1A (human) = DYRK1A (human) (UniProt Q13627)
EPHB1 (human) = EPHB1 (human) (UniProt P54762)
EPHB3 (human) = EPHB3 (human) (UniProt P54753)
FGFR2 (human) = FGFR2 (human) (UniProt P21802)
FGFR3 (human) = FGFR3 (human) (UniProt P22607)
FLT1 (human) = FLT1 (human) (UniProt P17948)
GRK6 (human) = GRK6 (human) (UniProt P43250)
HCK (human) = HCK (human) (UniProt P08631)
[1] = biological target: JAK1 JH1 catalytic (human) (UniProt P23458)
KDR (human) = KDR (human) (UniProt P35968)
MAP3K11 (human) = MAP3K11 (human) (UniProt Q16584)
MAPK12 (human) = MAPK12 (human) (UniProt P53778)
MAPK14 (human) = MAPK14 (human) (UniProt Q16539)
MARK2 (human) = MARK2 (human) (UniProt Q7KZI7)
NEK7 (human) = NEK7 (human) (UniProt Q8TDX7)
NTRK1 (human) = NTRK1 (human) (UniProt P04629)
NUAK1 (human) = NUAK1 (human) (UniProt O60285)
PAK2 (human) = PAK2 (human) (UniProt Q13177)
PASK (human) = PASK (human) (UniProt Q96RG2)
PHKG2 (human) = PHKG2 (human) (UniProt P15735)
PRKCE (human) = PRKCE (human) (UniProt Q02156)
PRKG1 (human) = PRKG1 (human) (UniProt Q13976)
RAF1 (human) = RAF1 (human) (UniProt P04049)
SGK2 (human) = SGK2 (human) (UniProt Q9HBY8)
SLK (human) = SLK (human) (UniProt Q9H2G2)
SRPK3 (human) = SRPK3 (human) (UniProt Q9UPE1)
STK16 (human) = STK16 (human) (UniProt O75716)
STK39 (human) = STK39 (human) (UniProt Q9UEW8)
TTK (human) = TTK (human) (UniProt P33981)
WEE1 (human) = WEE1 (human) (UniProt P30291)
WNK2 (human) = WNK2 (human) (UniProt Q9Y3S1)

Chain of FGFR2 (human) (P21802 whole entry, looked up): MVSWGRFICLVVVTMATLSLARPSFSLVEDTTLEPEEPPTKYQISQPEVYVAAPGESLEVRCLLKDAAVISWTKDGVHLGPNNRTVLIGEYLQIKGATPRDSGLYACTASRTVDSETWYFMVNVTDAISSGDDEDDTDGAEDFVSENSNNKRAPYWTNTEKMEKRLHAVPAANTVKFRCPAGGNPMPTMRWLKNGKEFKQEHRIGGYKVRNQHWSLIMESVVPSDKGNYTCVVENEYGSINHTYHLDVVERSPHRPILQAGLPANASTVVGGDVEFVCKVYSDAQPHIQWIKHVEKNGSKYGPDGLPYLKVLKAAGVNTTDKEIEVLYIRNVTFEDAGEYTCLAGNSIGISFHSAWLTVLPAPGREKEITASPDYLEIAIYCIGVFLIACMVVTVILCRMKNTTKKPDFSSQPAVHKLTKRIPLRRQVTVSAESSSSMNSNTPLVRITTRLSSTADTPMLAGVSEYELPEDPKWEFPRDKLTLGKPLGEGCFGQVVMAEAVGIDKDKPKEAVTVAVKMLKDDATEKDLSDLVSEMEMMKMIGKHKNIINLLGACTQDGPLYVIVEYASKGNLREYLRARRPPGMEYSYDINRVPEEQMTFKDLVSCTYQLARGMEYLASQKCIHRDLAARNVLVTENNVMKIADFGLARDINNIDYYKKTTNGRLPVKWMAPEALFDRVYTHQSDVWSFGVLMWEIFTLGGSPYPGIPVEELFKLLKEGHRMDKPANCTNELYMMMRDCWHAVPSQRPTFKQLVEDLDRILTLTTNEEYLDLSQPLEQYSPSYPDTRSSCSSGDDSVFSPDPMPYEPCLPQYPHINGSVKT
Chain of CAMK1G (human) (Q96NX5 whole entry, looked up): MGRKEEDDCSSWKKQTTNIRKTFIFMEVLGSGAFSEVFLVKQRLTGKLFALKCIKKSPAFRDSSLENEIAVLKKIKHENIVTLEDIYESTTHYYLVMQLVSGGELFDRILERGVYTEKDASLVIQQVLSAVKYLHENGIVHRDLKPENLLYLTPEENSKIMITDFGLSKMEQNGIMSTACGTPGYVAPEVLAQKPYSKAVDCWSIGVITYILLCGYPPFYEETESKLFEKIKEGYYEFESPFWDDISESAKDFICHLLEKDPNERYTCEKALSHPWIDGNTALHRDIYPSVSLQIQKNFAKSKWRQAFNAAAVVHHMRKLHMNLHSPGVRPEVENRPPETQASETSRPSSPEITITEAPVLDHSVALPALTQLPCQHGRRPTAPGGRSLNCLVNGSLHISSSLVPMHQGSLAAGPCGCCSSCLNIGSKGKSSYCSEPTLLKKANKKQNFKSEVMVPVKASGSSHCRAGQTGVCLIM
Chain of JAK1 JH1 catalytic (human) (P23458 whole entry, looked up): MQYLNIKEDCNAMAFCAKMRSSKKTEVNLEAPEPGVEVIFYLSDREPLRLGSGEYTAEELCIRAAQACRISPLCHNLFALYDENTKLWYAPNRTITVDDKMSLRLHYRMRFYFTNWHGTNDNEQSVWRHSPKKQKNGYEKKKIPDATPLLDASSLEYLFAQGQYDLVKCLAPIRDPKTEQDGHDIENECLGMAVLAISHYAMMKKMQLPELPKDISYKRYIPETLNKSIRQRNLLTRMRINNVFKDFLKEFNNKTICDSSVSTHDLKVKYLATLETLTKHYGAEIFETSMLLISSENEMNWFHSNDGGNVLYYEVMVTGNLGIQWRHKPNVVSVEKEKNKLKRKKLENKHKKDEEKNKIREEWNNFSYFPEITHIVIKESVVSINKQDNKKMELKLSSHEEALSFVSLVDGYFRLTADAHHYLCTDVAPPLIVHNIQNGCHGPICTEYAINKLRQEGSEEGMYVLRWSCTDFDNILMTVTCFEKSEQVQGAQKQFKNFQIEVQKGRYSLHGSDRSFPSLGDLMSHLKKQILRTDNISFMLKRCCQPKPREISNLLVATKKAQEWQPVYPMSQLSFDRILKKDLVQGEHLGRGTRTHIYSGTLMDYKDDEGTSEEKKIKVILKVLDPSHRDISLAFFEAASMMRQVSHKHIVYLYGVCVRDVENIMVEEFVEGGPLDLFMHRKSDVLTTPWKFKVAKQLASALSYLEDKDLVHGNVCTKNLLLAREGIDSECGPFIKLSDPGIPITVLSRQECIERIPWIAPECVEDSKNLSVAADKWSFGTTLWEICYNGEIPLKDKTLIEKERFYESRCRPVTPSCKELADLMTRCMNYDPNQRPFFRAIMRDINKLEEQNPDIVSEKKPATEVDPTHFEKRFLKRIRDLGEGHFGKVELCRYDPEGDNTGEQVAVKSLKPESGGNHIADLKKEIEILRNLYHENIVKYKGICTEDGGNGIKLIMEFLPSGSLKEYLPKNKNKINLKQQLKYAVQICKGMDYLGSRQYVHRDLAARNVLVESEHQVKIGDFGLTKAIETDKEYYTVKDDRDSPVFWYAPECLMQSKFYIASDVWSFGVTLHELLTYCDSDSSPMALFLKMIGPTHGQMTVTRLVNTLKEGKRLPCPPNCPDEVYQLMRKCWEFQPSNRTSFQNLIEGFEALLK
Chain of CDK3 CCNE1 (human) (P24864 whole entry, looked up): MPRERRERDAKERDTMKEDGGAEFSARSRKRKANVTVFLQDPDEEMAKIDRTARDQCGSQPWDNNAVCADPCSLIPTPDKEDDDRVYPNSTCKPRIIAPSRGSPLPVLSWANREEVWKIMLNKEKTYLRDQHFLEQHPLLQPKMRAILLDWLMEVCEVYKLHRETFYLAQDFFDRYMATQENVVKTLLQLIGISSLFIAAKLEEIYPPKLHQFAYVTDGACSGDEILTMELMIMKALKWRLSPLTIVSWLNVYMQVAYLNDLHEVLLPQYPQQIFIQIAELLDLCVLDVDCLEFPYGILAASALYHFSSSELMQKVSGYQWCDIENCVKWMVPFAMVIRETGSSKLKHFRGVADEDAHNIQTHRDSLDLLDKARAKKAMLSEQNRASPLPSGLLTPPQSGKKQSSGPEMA
Chain of CDK3 CCNE1 (human) (Q00526 whole entry, looked up): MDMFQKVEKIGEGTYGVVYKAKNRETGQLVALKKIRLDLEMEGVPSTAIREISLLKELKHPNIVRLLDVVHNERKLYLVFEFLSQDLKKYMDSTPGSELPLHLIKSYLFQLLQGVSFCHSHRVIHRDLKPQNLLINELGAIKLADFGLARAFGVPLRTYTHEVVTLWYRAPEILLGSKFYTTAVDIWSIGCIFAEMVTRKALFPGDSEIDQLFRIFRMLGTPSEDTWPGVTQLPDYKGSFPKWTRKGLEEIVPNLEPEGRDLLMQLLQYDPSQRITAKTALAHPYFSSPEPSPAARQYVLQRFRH
Chain of MAPK14 (human) (Q16539 whole entry, looked up): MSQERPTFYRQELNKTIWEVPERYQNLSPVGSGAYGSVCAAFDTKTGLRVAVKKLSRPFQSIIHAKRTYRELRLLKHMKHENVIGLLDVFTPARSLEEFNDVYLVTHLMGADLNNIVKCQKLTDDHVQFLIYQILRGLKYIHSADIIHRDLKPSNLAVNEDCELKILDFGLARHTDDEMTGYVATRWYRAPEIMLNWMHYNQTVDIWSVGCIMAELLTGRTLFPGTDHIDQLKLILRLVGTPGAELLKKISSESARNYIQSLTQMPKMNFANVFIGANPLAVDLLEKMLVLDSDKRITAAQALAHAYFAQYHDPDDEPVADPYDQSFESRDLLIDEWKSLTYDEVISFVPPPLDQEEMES
Chain of DMPK (human) (Q09013 whole entry, looked up): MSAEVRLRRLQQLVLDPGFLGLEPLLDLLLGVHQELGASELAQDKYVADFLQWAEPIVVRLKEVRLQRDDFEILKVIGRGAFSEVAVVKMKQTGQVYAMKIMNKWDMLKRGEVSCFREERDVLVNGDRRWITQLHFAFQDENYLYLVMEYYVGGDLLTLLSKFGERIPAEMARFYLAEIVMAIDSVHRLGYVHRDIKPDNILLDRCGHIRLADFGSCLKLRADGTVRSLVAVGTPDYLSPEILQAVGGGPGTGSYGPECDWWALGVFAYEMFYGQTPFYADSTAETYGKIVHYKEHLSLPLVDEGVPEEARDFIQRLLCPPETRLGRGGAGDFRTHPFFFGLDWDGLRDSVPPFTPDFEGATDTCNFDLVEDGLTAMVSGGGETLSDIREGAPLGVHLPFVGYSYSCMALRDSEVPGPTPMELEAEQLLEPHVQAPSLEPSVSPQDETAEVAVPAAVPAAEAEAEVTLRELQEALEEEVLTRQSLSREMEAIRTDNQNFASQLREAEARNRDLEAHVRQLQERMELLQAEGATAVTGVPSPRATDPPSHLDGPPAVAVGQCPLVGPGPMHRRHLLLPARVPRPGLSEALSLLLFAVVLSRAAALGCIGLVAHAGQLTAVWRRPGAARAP
Chain of STK16 (human) (O75716 whole entry, looked up): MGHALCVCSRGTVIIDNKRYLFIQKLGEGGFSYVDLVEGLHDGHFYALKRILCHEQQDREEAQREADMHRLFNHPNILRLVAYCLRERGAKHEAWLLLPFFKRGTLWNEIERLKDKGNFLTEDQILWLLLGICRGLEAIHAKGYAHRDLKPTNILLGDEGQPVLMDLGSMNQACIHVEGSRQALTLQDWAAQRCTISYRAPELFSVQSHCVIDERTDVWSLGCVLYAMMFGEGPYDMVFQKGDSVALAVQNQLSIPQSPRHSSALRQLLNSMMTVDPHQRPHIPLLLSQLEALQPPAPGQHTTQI
Chain of NEK7 (human) (Q8TDX7 whole entry, looked up): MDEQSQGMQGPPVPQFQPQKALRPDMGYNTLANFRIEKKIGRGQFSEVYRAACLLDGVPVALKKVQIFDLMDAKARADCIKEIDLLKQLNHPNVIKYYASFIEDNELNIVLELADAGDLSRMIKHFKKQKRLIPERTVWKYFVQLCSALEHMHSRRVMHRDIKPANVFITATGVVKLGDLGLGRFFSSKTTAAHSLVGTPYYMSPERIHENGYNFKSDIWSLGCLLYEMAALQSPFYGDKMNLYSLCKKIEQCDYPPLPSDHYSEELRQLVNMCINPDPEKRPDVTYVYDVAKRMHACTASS

SMILES: COc1cccc(-c2cc(=O)c3ccccc3o2)c1N
residual activity (ABL1 (human)): 93.9% | residual activity (AKT1 (human)): 93.8% | residual activity (ALK (human)): 84.1% | residual activity (AURKA (human)): 107% | residual activity (BRSK2 (human)): 98% | residual activity (CAMK1G (human)): 96.5% | residual activity (CAMKK2 (human)): 92.5% | residual activity (CDC42BPA (human)): 98.5% | residual activity (CDK3 CCNE1 (human)): 109% | residual activity (CDK5 CDK5R1 p25 (human)): 87.5% | residual activity (DMPK (human)): 97.1% | residual activity (DYRK1A (human)): 94% | residual activity (EPHB1 (human)): 88% | residual activity (EPHB3 (human)): 91.9% | residual activity (FGFR2 (human)): 97.8% | residual activity (FGFR3 (human)): 91% | residual activity (FLT1 (human)): 87.7% | residual activity (GRK6 (human)): 90.7% | residual activity (HCK (human)): 91.6% | residual activity [1]: 98.9% | residual activity (KDR (human)): 81.3% | residual activity (MAP3K11 (human)): 95.9% | residual activity (MAPK12 (human)): 95.5% | residual activity (MAPK14 (human)): 76.2% | residual activity (MARK2 (human)): 84.9% | residual activity (NEK7 (human)): 94.7% | residual activity (NTRK1 (human)): 99.9% | residual activity (NUAK1 (human)): 98.1% | residual activity (PAK2 (human)): 104% | residual activity (PASK (human)): 86.1% | residual activity (PHKG2 (human)): 117% | residual activity (PRKCE (human)): 82.4% | residual activity (PRKG1 (human)): 108% and 111% | residual activity (RAF1 (human)): 91.5% | residual activity (SGK2 (human)): 95.9% | residual activity (SLK (human)): 102% | residual activity (SRPK3 (human)): 91% | residual activity (STK16 (human)): 95.4% | residual activity (STK39 (human)): 86.8% | residual activity (TTK (human)): 99% | residual activity (WEE1 (human)): 83% | residual activity (WNK2 (human)): 122%

SMILES: O=C(O)c1ccc2c3c1cccc3c(=O)n1c3ccccc3nc21
residual activity (ABL1 (human)): 99.3% | residual activity (AKT1 (human)): 101% | residual activity (ALK (human)): 92.7% | residual activity (AURKA (human)): 78.6% | residual activity (BRSK2 (human)): 90.4% | residual activity (CAMK1G (human)): 99% | residual activity (CAMKK2 (human)): 7.88% | residual activity (CDC42BPA (human)): 96.1% | residual activity (CDK3 CCNE1 (human)): 97.9% | residual activity (CDK5 CDK5R1 p25 (human)): 80.6% | residual activity (DMPK (human)): 98.9% | residual activity (DYRK1A (human)): 55.5% | residual activity (EPHB1 (human)): 97.5% | residual activity (EPHB3 (human)): 94.5% | residual activity (FGFR2 (human)): 100% | residual activity (FGFR3 (human)): 92.9% | residual activity (FLT1 (human)): 86.5% | residual activity (GRK6 (human)): 91.4% | residual activity (HCK (human)): 96.7% | residual activity [1]: 98.4% | residual activity (KDR (human)): 101% | residual activity (MAP3K11 (human)): 23.7% | residual activity (MAPK12 (human)): 103% | residual activity (MAPK14 (human)): 99% | residual activity (MARK2 (human)): 87.7% | residual activity (NEK7 (human)): 105% | residual activity (NTRK1 (human)): 105% | residual activity (NUAK1 (human)): 41.3% | residual activity (PAK2 (human)): 97% | residual activity (PASK (human)): 106% | residual activity (PHKG2 (human)): 94.7% | residual activity (PRKCE (human)): 113% | residual activity (PRKG1 (human)): 94% and 95.1% | residual activity (RAF1 (human)): 97.5% | residual activity (SGK2 (human)): 103% | residual activity (SLK (human)): 94.1% | residual activity (SRPK3 (human)): 82.8% | residual activity (STK16 (human)): 106% | residual activity (STK39 (human)): 102% | residual activity (TTK (human)): 81% | residual activity (WEE1 (human)): 84.6% | residual activity (WNK2 (human)): 106%

SMILES: O=c1c2ccccc2[nH]c(=S)n1CCN1CCC(=C(c2ccc(F)cc2)c2ccc(F)cc2)CC1
residual activity (ABL1 (human)): 106% | residual activity (AKT1 (human)): 98.3% | residual activity (ALK (human)): 104% | residual activity (AURKA (human)): 100% | residual activity (BRSK2 (human)): 99.8% | residual activity (CAMK1G (human)): 104% | residual activity (CAMKK2 (human)): 100% | residual activity (CDC42BPA (human)): 97.7% | residual activity (CDK3 CCNE1 (human)): 100% | residual activity (CDK5 CDK5R1 p25 (human)): 93.5% | residual activity (DMPK (human)): 108% | residual activity (DYRK1A (human)): 99.9% | residual activity (EPHB1 (human)): 100% | residual activity (EPHB3 (human)): 92.8% | residual activity (FGFR2 (human)): 101% | residual activity (FGFR3 (human)): 99.3% | residual activity (FLT1 (human)): 95.2% | residual activity (GRK6 (human)): 111% | residual activity (HCK (human)): 114% | residual activity [1]: 105% | residual activity (KDR (human)): 93.1% | residual activity (MAP3K11 (human)): 95.2% | residual activity (MAPK12 (human)): 99% | residual activity (MAPK14 (human)): 99% | residual activity (MARK2 (human)): 108% | residual activity (NEK7 (human)): 100% | residual activity (NTRK1 (human)): 97% | residual activity (NUAK1 (human)): 102% | residual activity (PAK2 (human)): 103% | residual activity (PASK (human)): 99% | residual activity (PHKG2 (human)): 100% | residual activity (PRKCE (human)): 100% | residual activity (PRKG1 (human)): 102% and 95.7% | residual activity (RAF1 (human)): 96.7% | residual activity (SGK2 (human)): 99.1% | residual activity (SLK (human)): 103% | residual activity (SRPK3 (human)): 102% | residual activity (STK16 (human)): 104% | residual activity (STK39 (human)): 96.8% | residual activity (TTK (human)): 96.3% | residual activity (WEE1 (human)): 93% | residual activity (WNK2 (human)): 96.3%

residual activity (ABL1 (human)): 96.3% | residual activity (AKT1 (human)): 104% | residual activity (ALK (human)): 85.2% | residual activity (AURKA (human)): 83.8% | residual activity (BRSK2 (human)): 88.1% | residual activity (CAMK1G (human)): 92.3% | residual activity (CAMKK2 (human)): 80.4% | residual activity (CDC42BPA (human)): 99.6% | residual activity (CDK3 CCNE1 (human)): 92.3% | residual activity (CDK5 CDK5R1 p25 (human)): 90% | residual activity (DYRK1A (human)): 52.7% | residual activity (EPHB1 (human)): 90.9% | residual activity (EPHB3 (human)): 91% | residual activity (FGFR2 (human)): 102% | residual activity (FGFR3 (human)): 98.2% | residual activity (FLT1 (human)): 74% | residual activity (GRK6 (human)): 87.6% | residual activity (HCK (human)): 92.2% | residual activity [1]: 113% | residual activity (KDR (human)): 99.7% | residual activity (MAP3K11 (human)): 72.2% | residual activity (MAPK12 (human)): 96.7% | residual activity (MAPK14 (human)): 89.1% | residual activity (MARK2 (human)): 97.9% | residual activity (NEK7 (human)): 88.2% | residual activity (NTRK1 (human)): 106% | residual activity (NUAK1 (human)): 91.8% | residual activity (PAK2 (human)): 103% | residual activity (PASK (human)): 64.1% | residual activity (PHKG2 (human)): 99.5% | residual activity (PRKCE (human)): 92.1% | residual activity (PRKG1 (human)): 97.5% and 99.4% | residual activity (RAF1 (human)): 84% | residual activity (SGK2 (human)): 100% | residual activity (SLK (human)): 87.7% | residual activity (SRPK3 (human)): 89.5% | residual activity (STK16 (human)): 79.2% | residual activity (STK39 (human)): 96.9% | residual activity (TTK (human)): 80.9% | residual activity (WEE1 (human)): 88.5% | residual activity (WNK2 (human)): 106%
SMILES: N#C/C(=C1/Nc2ccccc2S1)c1ccnc(NCCc2cccnc2)n1
